Here are results for one molecule from patent US9763918B2, “Compositions and methods for treating chronic urticaria” (Knopp Biosciences LLC, priority 2013, dated 2017).

Assay [1] has as its system eosinophils. It counts as in vivo. The settings on record: minipigs, 7.5, 25, 75/50 mg/kg daily oral gavage, 39 weeks. The procedure: In a 39-week repeat-dose toxicology study, minipigs were dosed at 0, 7.5, 25, and 75 mg/kg dexpramipexole by daily oral gavage through Study Day 45 and at 0, 7.5, 25, and 50 mg/kg dexpramipexole from Study Day 46 to study completion.
Assay [2] has as its system myeloid and lymphoid cell types, red blood cells, platelets. As to conditions: Phase 3, 300 mg daily, month 6. The procedure:
Hematological parameters were measured in a Phase 3 study of dexpramipexole in ALS. Because of the high rate of mortality among ALS patients, including subjects in the Phase 3 trial, hematology parameters obtained at the month 6 visit were chosen for analysis to remove the effect of study dropouts in later months.

For assay [3], the system named is Siglec-F lo IL5Rα hi positive cells (developing B cells, basophils and other cell populations). The settings on record: mice, 30 mg/kg or 100 mg/kg daily gavage, 70 days, either dose. As for the experimental part: (§1) The study consisted of 3 groups of BALB/cByJ mice (10 mice per group). Mice received daily gavage treatments of either 30 mg/kg, 100 mg/kg of dexpramipexole or vehicle control for 70 days. Bone marrow was processed into single cell suspensions and cells were stained with fluorescent conjugate antibodies to analyze the developmental stages of cells by flow cytometry. […] The columns depict the mean for each group and the error bar indicates the standard error of the mean. The asterisks denote statistical significance between treatment groups and the vehicle control group by one-way ANOVA (* p≦0.05, ** p≦0.01).

The test system of assay [4] is Sca1+ c-Kit+ lineage negative cells (multipotent hematopoietic stem cells). The settings on record: mice, 30 mg/kg or 100 mg/kg daily gavage, 70 days, either dose. As for the experimental part:
as §1

In assay [5] the test system is eosinophils. The procedure:
(§2) In FIG. 2A the time period marked “W” represents the end of the 4-week washout following the month 3 time point.
The phase 3 clinical trial was a double-blind study of dexpramipexole in ALS patients randomized 1:1 to placebo or dexpramipexole 300 mg daily treatment. Hematology parameters were collected as part of routine safety monitoring. Eosinophil and basophil counts were retrospectively analyzed by visit.
Eosinophil levels were summarized over available time points and analyzed by ANOVA testing the effect of treatment vs. placebo on mean changes in serum eosinophil counts from baseline. Subjects with baseline eosinophils from 0 to 0.02×10^9/L (constituting less than 2% of all subjects analyzed) were censored from the primary analysis because of the inherent limitation to observe a decline from baseline.
Statistical analysis of the change from baseline was performed at month 6 to remove the effect of study dropouts in later months.

The test system of assay [6] is eosinophils. The procedure:
as §2
The Phase 2 trial was a two-part, double-blind study that evaluated the safety, tolerability, and clinical effects of dexpramipexole in ALS patients.
In Part 1, subjects were randomized to placebo (n=27), 50 mg/day (n=23), 150 mg/day (n=26), or 300 mg/day dexpramipexole (n=26) for 12 weeks.
This is another data set of the same source.

On to `CCCN[C@@H]1CCc2nc(N)sc2C1` [dexpramipexole, (6R)-2-amino-4,5,6,7-tetrahydro-6-(propylamino) benzothiazole], for which, in the assay on eosinophils [1], the effect on eosinophils entry was “dose- and time-dependent reduction in eosinophils”. In assay [2], the “change of all myeloid and lymphoid cell types measured” value was “statistically significant mean reductions from baseline”. In assay [3], the “Siglec-F lo IL5Rα hi positive cells in bone marrow vs vehicle control” value is listed as “lowered”. Moreover, the “number of Sca1+ c-Kit+ lineage negative cells in bone marrow vs vehicle control” value in assay [4] is recorded as “lowered”. Also, the “peripheral blood eosinophil count” value in the assay with eosinophils [5] (Phase 3, after 8-12 weeks of treatment, persisted for the duration of the trial) is reported as “profound decrease”. For the same molecule, the “eosinophil counts in subject with elevated eosinophil counts at baseline” value with eosinophils [5] (Phase 3 subject with highest baseline eosinophil count, through month 12) is recorded as “decrease in eosinophil counts”. For the same molecule, the “effect on eosinophil counts” value with eosinophils [6] (Phase 2 trial in ALS subjects) was “dose- and time-dependent decrease in eosinophil counts”. The “eosinophil counts in subject with hypereosinophilia at baseline” value with eosinophils [6] (one Phase 2 subject, Part 2 baseline, through month 12) is recorded as “decrease in eosinophil counts”.
